Literature values as cited in patent US12697339B2, “Composition and methods of treatment using synergistically-enhanced supplementation” (Xygenyx Inc., priority 2023, dated 2026).
Non-standard residues stand in square brackets, D forms with d. Residues, ends and D or L forms follow the SMILES beside them. Cit = NC(=O)NCCC[C@H](N)C(=O)O

How the values were obtained:
[1] = studies using mice
[2] = tested on: skin; conditions: as penetration enhancer for transdermal drugs
[3] = compared to α-tocopherol with biological activity factor 1.0
[4] = tested on: skin; conditions: topical application, concentrations 0.5-5%
[5] = tested on: skin; conditions: topical formulations, within four weeks of treatment
[6] = in vivo
[7] = tested on: wide dynamic range neurons in the ventroposterolateral nucleus of the thalamus; conditions: believed
[8] = in vivo; remark: listed apart in the source
[9] = even when dietary intake occurs in equal portions

CC(CN)C(=O)O [L-BAIBA, L-beta-aminoisobutyric acid]
tolerated dose [1]: 10-100 mg/kg of bodyweight

CC(C)[C@@H]1CC[C@@H](C)C[C@H]1O [Menthol]
factor of increase in drug uptake via the transdermal route [2]: ≥ 10

Cc1cc(O)cc2c1O[C@](C)(CCC[C@H](C)CCC[C@H](C)CCCC(C)C)CC2 [δ-tocopherol]
relative biological activity [3]: 0.03

Cc1c(C)c2c(c(C)c1O)CC[C@@](C)(CCC[C@H](C)CCC[C@H](C)CCCC(C)C)O2 [α-tocopherol]
reduction of risk of coronary disease (dietary supplementation, doses up to 400 IU/day): up to 34% | reduction of risk of developing neurodegenerative diseases such as Alzheimer's Syndrome or dementia (dietary supplementation, doses up to 400 IU/day, controlled trials): ≤ 24% | reduction in the development of age-related cataracts (in combination with 10-20 mg β-carotene and 400-500 mg vitamin C, doses around 400-500 IU): 23%

C=CCCCCCCCCC(=O)N[C@@H](Cc1ccccc1)C(=O)O [Undecylenoyl phenylalanine]
time of treatment to skin lightening effects [4]: ≥ 7 days

CC[C@H](C)[C@H](NC(=O)[C@H](CC(=O)O)NC(=O)[C@@H](N)CCCCN)C(=O)N[C@@H](CCCNC(N)=O)C(N)=O [Tripeptide-10 citrulline] (H-KDI[Cit]-NH2)
improvement of suppleness [5]: ≤ 54%

HGH: hormone comprising a peptide chain that is synthesized in the pituitary gland
biological half-life [6]: 10-20 minutes

CCCCCc1cc(O)c2c(c1)OC(C)(C)C1CCC(C)=CC21 (stereo not drawn) [THC, Δ-9-tetrahydrocannabinol]
power in mediating pain relative to morphine [7]: ten times more powerful than morphine

CCNC(=O)CC[C@H](N)C(=O)O [Theanine]
dose considered safe and well-tolerated [8]: up to 400 mg per day

CC12CCC(CC1)C(C)(C)O2 [Eucalyptol]
factor of increase in drug uptake via the transdermal route [2]: more than 10

Cc1c(O)cc2c(c1C)O[C@](C)(CCC[C@H](C)CCC[C@H](C)CCCC(C)C)CC2 [γ-tocopherol]
concentration in vivo relative to α-tocopherol [9]: roughly 10% | relative biological activity [3]: 0.1

Cc1cc(O)c(C)c2c1O[C@](C)(CCC[C@H](C)CCC[C@H](C)CCCC(C)C)CC2 [β-tocopherol]
relative biological activity [3]: 0.5
